Results published in the NIST ThermoML archive (doi:10.1016/j.jct.2014.01.016).

Details: 298.15 K; Liquid; Gas chromatography

Row | Structure (SMILES) | vapor or sublimation pressure
1 | CCCCCC1CCCC(=O)O1 (stereo unspecified) [2H-pyran-2-one, tetrahydro-6-pentyl-] | 0.00027 kPa
2 | CCCCCCCC1CCCC(=O)O1 (stereo unspecified) [δ-dodecanolactone] | 3e-05 kPa
3 | CCCC1CCCC(=O)O1 (stereo unspecified) [2H-pyran-2-one, tetrahydro-6-propyl-] | 0.00221 kPa
4 | CCCCC1CCC(=O)O1 (stereo unspecified) [γ-octanolactone] | 0.00278 kPa
5 | CCCCC1CCCC(=O)O1 (stereo unspecified) [δ-nonanolactone] | 0.00076 kPa
6 | CCCCCCC1CCCC(=O)O1 (stereo unspecified) [δ-undecanolactone] | 9e-05 kPa
7 | CCC1CCC(=O)O1 (stereo unspecified) [2(3H)-furanone, 5-ethyldihydro-] | 0.0225 kPa

The next lines start with the values.

Row | vapor or sublimation pressure | Structure (SMILES)
8 | 0.00097 kPa | CCCCCC1CCC(=O)O1 (stereo unspecified) [2(3H)-furanone, dihydro-5-pentyl-]
9 | 4e-05 kPa | CCCCCCCCC1CCC(=O)O1 (stereo unspecified) [γ-dodecanolactone]
10 | 0.00033 kPa | CCCCCCC1CCC(=O)O1 (stereo unspecified) [γ-decalactone]
11 | 0.00012 kPa | CCCCCCCC1CCC(=O)O1 (stereo unspecified) [γ-undecanolactone]
